# Experimental data taken from patent US8324267B2, “Kinase inhibitors and the use thereof” (Forschungzentrum Karlsruhe GmbH, priority 2001, dated 2012).
# Key:
# Test in all cases: In vitro tyrosine kinase assay (ELISA, GST kinase, polyGlu,Tyr 4:1 acceptor)
# Type in all cases: biochemical
# Conditions in all cases: read-out: inhibition (−) or stimulation (+) of kinase activity relative to the control; for inhibition at 1 µg/mL: inhibitor 1 μg/ml; for inhibition at 10 µg/mL: inhibitor 10 μg/ml
# Tie2 = Tie2 (Homo sapiens, UniProt Q02763)
# Sequence of Tie2 (Q02763 23-1124): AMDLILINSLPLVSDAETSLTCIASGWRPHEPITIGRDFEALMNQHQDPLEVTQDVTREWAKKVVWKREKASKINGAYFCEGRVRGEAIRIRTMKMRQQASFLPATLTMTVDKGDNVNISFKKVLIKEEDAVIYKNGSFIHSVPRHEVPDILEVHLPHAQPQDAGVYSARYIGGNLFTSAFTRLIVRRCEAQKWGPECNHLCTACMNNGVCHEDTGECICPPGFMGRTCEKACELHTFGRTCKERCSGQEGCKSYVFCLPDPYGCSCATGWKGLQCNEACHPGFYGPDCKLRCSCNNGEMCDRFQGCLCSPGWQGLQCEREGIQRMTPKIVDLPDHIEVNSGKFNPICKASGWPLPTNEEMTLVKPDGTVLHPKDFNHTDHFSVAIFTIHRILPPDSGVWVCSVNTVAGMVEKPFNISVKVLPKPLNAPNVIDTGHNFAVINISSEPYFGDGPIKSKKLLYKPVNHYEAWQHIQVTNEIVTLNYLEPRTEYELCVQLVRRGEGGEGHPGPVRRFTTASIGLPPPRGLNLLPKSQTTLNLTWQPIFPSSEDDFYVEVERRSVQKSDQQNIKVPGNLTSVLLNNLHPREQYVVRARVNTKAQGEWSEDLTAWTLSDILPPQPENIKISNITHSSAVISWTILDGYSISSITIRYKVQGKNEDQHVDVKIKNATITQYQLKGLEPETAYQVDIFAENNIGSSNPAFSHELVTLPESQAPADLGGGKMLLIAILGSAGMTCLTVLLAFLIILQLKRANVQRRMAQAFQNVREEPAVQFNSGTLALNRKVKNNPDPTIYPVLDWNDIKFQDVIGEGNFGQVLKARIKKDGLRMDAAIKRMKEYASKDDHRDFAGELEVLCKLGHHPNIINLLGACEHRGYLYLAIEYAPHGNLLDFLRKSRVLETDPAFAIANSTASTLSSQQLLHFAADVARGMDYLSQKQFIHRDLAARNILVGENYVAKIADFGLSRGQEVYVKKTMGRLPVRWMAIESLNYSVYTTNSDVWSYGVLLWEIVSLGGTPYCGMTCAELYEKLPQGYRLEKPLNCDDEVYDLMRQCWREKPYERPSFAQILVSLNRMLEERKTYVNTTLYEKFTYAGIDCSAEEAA
# Protocol: (§1) The inhibition of various receptor tyrosine kinases in vitro by MAE87, MAE106 and MAZ51 was investigated. The inhibitors were investigated in 2 different concentrations (1 μg/ml and 10 μg/ml). The inhibition is stated in %. “+”=stimulation of kinase activity relative to the control,
# (§2) “−”=inhibition of kinase activity relative to the control.
# (§3) The activity of the RTK inhibitors were determined with the aid of an ELISA. In this assay, the corresponding kinases were employed as recombinant GST fusion proteins (glutathione S-transferase). Synthetic polyGlu, Tyr 4:1 is used as acceptor. The ability of different concentrations of the test substances to inhibit the RTK-mediated phosphorylation of the abovementioned acceptor was assessed. All the tests were carried out in duplicate.
# (§4) ELISA plates were coated with 0.2 mg/ml of polyGlu, Tyr 4:1 in 100 mM bicarbonate buffer (pH 9.6) overnight. This solution was removed and the microtiter plates were washed twice with TBS buffer (10 mM Tris-HCl, pH 8.1, 100 mM NaCl) and then blocked with 5% BSA/TBS for 30 min. 50 μl of test substance (2 or 20 μg/ml in 10% DMSO), 25 μl of GST kinase in 4× kinase buffer (200 mM HEPES, 100 mM NaCl, 80 μM Na3VO4 and 0.04% BSA) were introduced. The reaction was started by adding 25 μl of 160 μM ATP (in 40 mM MnCl2) as substrate of the kinases. The final concentrations of the test compounds is thus 1 or 10 μg/ml in 5% DMSO. The GST fusion proteins were employed in the following concentrations. VEGFR-2 50 NG/well, VEGFR-3 300 ng/well, Tie2 300 ng/well, EGFR 50 ng/well, ErbB2 200 ng/well, IGF-1R 50 ng/well, FGFR1 200 ng/well. The reaction mixture was incubated at 30° C. for 90 min. The kinase reaction was stopped by adding 50 μl of 30 mM EDTA/well. The microtiter plates were washed twice with 0.05% Tween20/TBS. Anti-phosphotyrosine antibody (1:500) was added in 0.05% Tween20/TBS (with 0.5% BSA, 0.025% skimmed milk powder and 100 μM Na3VO4) and incubated at 37° C. for 1 h. The microtiter plates were washed three times with 0.05% Tween20/TBS. The HRP-conjugated detection autibody (1:1000) was added in 0.05% Tween20/TBS (with 0.5% BSA, 0.025% skimmed milk powder and 100 μM Na3VO4) and incubated at 37° C. for 1 h. The microtiter plates were washed three times with 0.05% Tween20/TBS. ABTS (2,2′-azino-di-(3-ethylbenz-thiazoline-6-sulfonate)) substrate (Roche Diagnostics GmbH, Mannheim) was added. The OD was determined at 405 nm using an ELISA reader.
# IGF1R = IGF1R (Homo sapiens, UniProt P08069)
# Protocol: as §1, §2, §3, §4
# ErbB2 = ErbB2 (Homo sapiens, UniProt P04626)
# Protocol: as §1, §2, §3, §4
# VEGFR-2 = VEGFR-2 (Homo sapiens, UniProt P35968)
# Sequence of VEGFR-2 (P35968 20-1356): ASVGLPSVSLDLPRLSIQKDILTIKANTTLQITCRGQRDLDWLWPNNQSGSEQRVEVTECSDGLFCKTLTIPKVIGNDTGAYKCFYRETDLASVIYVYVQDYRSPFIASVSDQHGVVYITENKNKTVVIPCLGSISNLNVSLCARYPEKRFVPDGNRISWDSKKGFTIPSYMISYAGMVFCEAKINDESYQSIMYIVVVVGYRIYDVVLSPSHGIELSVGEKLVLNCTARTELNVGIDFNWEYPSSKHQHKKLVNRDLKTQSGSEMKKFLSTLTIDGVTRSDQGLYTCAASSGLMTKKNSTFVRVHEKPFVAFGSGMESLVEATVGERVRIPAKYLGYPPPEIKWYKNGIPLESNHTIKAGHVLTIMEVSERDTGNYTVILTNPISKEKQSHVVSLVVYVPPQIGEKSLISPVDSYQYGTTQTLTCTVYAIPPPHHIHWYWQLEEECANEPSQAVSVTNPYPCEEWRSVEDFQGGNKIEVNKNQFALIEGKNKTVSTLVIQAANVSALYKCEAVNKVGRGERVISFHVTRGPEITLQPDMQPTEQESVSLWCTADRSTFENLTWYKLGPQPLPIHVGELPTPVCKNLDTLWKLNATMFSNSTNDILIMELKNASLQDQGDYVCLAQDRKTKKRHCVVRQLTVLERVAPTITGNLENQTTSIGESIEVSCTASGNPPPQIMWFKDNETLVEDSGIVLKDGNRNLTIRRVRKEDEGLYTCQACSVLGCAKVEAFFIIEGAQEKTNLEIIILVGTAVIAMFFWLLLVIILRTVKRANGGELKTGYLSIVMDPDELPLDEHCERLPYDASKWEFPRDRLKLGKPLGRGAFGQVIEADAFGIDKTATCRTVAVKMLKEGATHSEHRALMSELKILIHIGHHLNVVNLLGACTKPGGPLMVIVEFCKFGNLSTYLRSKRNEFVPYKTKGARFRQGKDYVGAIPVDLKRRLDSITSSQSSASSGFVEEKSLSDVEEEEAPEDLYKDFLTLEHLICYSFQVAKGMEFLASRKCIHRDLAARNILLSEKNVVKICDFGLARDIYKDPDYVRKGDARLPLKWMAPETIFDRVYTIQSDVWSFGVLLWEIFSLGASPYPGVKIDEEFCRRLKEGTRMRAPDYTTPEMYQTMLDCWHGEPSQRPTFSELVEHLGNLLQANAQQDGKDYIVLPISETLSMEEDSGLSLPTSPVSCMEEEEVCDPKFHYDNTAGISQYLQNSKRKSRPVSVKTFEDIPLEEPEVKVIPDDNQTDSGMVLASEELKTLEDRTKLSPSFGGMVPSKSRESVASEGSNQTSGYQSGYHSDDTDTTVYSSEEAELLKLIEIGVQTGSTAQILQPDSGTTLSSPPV
# Protocol: as §1, §2, §3, §4
# FGFR1 = FGFR1 (Homo sapiens, UniProt P11362)
# Sequence of FGFR1 (P11362 22-822): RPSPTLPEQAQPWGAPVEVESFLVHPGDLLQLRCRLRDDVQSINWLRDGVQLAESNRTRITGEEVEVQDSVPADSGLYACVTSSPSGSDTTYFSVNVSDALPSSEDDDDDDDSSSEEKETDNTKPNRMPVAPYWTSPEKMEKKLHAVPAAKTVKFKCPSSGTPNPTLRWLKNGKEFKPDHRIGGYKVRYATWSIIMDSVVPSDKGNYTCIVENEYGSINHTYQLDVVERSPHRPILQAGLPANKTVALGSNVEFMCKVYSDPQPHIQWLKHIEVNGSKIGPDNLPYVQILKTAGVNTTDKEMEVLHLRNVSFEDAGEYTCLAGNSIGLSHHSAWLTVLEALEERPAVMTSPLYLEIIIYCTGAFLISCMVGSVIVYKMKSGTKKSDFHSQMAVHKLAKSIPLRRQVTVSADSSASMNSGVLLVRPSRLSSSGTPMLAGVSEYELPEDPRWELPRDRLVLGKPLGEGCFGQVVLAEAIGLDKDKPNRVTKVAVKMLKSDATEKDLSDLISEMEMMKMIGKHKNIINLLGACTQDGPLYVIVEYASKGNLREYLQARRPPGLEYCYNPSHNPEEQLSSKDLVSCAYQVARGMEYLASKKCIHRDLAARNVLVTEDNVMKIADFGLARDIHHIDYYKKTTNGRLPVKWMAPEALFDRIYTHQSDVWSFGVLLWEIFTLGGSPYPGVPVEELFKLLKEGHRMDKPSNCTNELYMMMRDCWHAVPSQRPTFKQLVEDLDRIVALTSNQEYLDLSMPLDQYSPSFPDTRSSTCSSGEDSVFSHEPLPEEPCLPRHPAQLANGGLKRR
# Protocol: as §1, §2, §3, §4
# EGFR = EGFR (Homo sapiens, UniProt P00533)
# Sequence of EGFR (P00533 25-1210): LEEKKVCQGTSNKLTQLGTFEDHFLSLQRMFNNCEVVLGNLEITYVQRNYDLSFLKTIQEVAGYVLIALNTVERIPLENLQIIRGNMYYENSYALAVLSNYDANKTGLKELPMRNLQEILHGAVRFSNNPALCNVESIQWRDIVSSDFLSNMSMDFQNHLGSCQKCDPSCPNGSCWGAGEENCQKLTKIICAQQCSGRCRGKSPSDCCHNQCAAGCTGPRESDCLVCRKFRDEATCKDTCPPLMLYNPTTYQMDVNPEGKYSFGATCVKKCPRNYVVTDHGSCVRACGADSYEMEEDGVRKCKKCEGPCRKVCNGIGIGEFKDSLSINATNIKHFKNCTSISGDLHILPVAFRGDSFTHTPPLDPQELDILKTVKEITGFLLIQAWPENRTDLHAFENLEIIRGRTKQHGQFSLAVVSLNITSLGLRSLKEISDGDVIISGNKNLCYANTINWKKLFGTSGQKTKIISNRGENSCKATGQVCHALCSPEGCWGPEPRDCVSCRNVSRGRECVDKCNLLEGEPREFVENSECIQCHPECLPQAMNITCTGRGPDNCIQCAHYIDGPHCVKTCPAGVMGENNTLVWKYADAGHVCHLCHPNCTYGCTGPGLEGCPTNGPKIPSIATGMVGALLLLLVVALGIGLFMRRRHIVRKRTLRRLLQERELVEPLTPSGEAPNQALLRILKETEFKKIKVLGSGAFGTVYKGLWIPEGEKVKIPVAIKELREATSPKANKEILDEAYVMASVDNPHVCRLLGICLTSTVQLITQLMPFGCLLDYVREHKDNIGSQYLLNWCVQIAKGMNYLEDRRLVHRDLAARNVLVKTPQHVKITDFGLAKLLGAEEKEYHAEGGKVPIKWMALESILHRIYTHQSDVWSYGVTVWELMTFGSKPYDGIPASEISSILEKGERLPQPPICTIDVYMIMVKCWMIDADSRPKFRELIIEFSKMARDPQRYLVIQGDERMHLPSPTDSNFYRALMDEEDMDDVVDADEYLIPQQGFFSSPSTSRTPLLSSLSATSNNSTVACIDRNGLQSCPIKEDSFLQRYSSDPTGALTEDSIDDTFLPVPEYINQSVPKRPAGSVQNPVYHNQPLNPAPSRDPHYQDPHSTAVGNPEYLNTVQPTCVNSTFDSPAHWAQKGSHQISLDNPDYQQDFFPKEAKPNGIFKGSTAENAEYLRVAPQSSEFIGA
# Protocol: as §1, §2, §3, §4
Compound,inhibition at 1 µg/mL (Tie2) [%],inhibition at 10 µg/mL (Tie2) [%],inhibition at 1 µg/mL (IGF1R) [%],inhibition at 10 µg/mL (IGF1R) [%],inhibition at 1 µg/mL (ErbB2) [%],inhibition at 10 µg/mL (ErbB2) [%],inhibition at 1 µg/mL (VEGFR-2) [%],inhibition at 10 µg/mL (VEGFR-2) [%],inhibition at 1 µg/mL (FGFR1) [%],inhibition at 10 µg/mL (FGFR1) [%],inhibition at 1 µg/mL (EGFR) [%],inhibition at 10 µg/mL (EGFR) [%]
"O=C1Nc2ccccc2C1=Cc1ccc(O)cc1O [MAE87, 3-(2,4-Dihydroxybenzylidene)-1,3-dihydroindol-2-one]",-1,65,63,94,45,84,46,77,50,94,70,86
"COc1ccc(C=C2C(=O)Nc3ccccc32)cc1F [MAE106, 3-(3-Fluoro-4-methoxybenzylidene)-1,3-dihydroindole-2-one]",5,28,10,71,-4,41,-21,58,-5,1,5,64
"CN(C)c1ccc(C=C2C(=O)Nc3ccccc32)c2ccccc12 [MAZ51, 3-(4-Dimethylaminonaphthalen-1-ylmethylene)-1,3-dihydroindol-2-one]",7,27,10,68,11,39,8,74,-1,5,25,58
